{"source": "the OPERA property sets (Mansouri et al. 2018)", "note": "Where a SMILES comes first, the peptide text is derived from it.", "data": [{"settings": "not given", "units": {"solubility": "mM"}, "values": [{"molecule": "CC(C)[C@@H]1NC(=O)CNC1=O", "solubility": 128}, {"molecule": "CCOC(=O)N(C)CC", "solubility": 381}, {"molecule": "CC(C)C[C@H](N)C(=O)N[C@@H](C)C(=O)NCC(=O)O", "note": "(H-Leu-Ala-Gly-OH)", "solubility": 127}, {"molecule": "NC(=S)SCC(=O)O", "solubility": 179}, {"molecule": "O=C(O)C1=CCCc2ccccc21", "solubility": 1.61}, {"molecule": "O=c1cc(Br)c2ccccc2o1", "solubility": 22.2}, {"molecule": "O=C(Cc1ccccc1)N[C@@H](CSSC[C@H](NC(=O)Cc1ccccc1)C(=O)O)C(=O)O", "solubility": 14.7}, {"molecule": "Oc1ncncc1Br", "solubility": 357}, {"molecule": "O=c1[nH]c(-c2ccccc2)ncc1Br", "solubility": 0.332}, {"molecule": "COc1ccc(NCC(O)CO)cc1", "note": "(centres undefined)", "solubility": 507}, {"molecule": "CC(C)[C@H](NC(=O)CN)C(=O)O", "note": "(H-Gly-Val-OH)", "solubility": 2870}, {"molecule": "CCCCOC(=O)CCC(=O)OCCCC", "solubility": 0.999}, {"molecule": "C[C@@H](O)CCCC=O", "solubility": 344}, {"molecule": "O=C(OCCCO)c1ccccc1", "solubility": 55.5}, {"molecule": "CCCOCC(O)COCCC", "solubility": 454}, {"molecule": "CCOC(OCC)C(Cl)(Cl)Cl", "solubility": 22.6}, {"molecule": "O=C(O)C=CCCC(=O)O", "solubility": 62.4}, {"molecule": "CC=Cc1ccc(OCC(=O)O)c(OC)c1", "solubility": 26.1}, {"molecule": "NC(CS(=O)(=O)c1ccc(Cl)cc1)C(=O)O", "note": "(centres undefined)", "solubility": 2.93}, {"molecule": "Nc1ccc2snnc2c1", "solubility": 49.6}, {"molecule": "CCOC(=O)N(CC)CC", "solubility": 86.1}, {"molecule": "CC1(C)OC(=O)c2cc3ccccc3cc21", "solubility": 1.04}, {"molecule": "O=C(O)CSSSSCC(=O)O", "solubility": 35.3}, {"molecule": "NC(=O)NCl", "solubility": 2120}, {"molecule": "N#CC1CCCC1=O", "note": "(centres undefined)", "solubility": 440}, {"molecule": "CCC(NC(=N)N)C(=O)O", "note": "(centres undefined)", "solubility": 138}, {"molecule": "O=C1Cc2c(ccc3ccccc23)O1", "solubility": 1.96}, {"molecule": "CC(C)OC(=O)C(C)(C)O", "solubility": 1030}, {"molecule": "CCSS(=O)(=O)CC", "solubility": 77.8}, {"molecule": "CCOCCOC(=O)CCCCCCCCC(=O)OCCOCC", "solubility": 0.635}, {"molecule": "CCC1(CC(C)=O)C(=O)NC(=O)NC1=O", "solubility": 171}, {"molecule": "CC(C)C1OCCO1", "solubility": 861}, {"molecule": "C=CCOC(CO)CO", "solubility": 3030}, {"molecule": "O=C(c1cc([N+](=O)[O-])cc([N+](=O)[O-])c1)N(O)c1ccccc1", "solubility": 0.231}, {"molecule": "CN(C)CCCCl", "solubility": 633}, {"molecule": "C[Si](C)(C)CN", "solubility": 17.3}]}, {"settings": "20 °C", "units": {"solubility": "mM"}, "values": [{"molecule": "CCCCC(CCC(=O)O)CC(=O)O", "note": "(centres undefined)", "solubility": 40}, {"molecule": "Cc1ccc(C(=O)O)o1", "solubility": 150}, {"molecule": "O=c1[nH]ccc2cccnc12", "solubility": 72}, {"molecule": "O=C(O)c1occ(Cl)c1Cl", "solubility": 14.9}, {"molecule": "O=C(O)c1cc(Cl)ccc1O", "solubility": 57.9}, {"molecule": "O=C(O)CCP(=O)(O)O", "solubility": 3170}, {"molecule": "NNC(N)=S", "solubility": 110}, {"molecule": "O=S(CCCl)CCCl", "solubility": 68.5}, {"molecule": "CC(=O)NC(NC(C)=O)c1ccccc1", "solubility": 48.5}, {"molecule": "CCC(CC)COC(C)=O", "solubility": 44.4}, {"molecule": "Cn1c(=O)cnc2cncnc21", "solubility": 123}, {"molecule": "CCC(O)C(Cl)(Cl)Cl", "note": "(centres undefined)", "solubility": 113}, {"molecule": "CC(C)C1(Br)C(=O)NC(=O)NC1=O", "solubility": 6.18}, {"molecule": "CC(=O)/C(=N/O)c1ccccc1", "solubility": 4.29}, {"molecule": "O=C(Nc1ccccc1)C(Cl)Cl", "solubility": 0.441}, {"molecule": "COc1ncc2nccnc2n1", "solubility": 77.1}, {"molecule": "OCc1ccc(O)cc1", "solubility": 54}, {"molecule": "O=C(O)COc1cccc(Cl)c1", "solubility": 6.38}, {"molecule": "Cn1cnc2c(=O)n(C)c(=O)n(C)c2c1=O", "solubility": 10.4}, {"molecule": "O=C(O)c1cc(Br)co1", "solubility": 65.4}, {"molecule": "CCCC(O)(CCC)C(O)c1ccccc1", "note": "(centres undefined)", "solubility": 2.25}, {"molecule": "C=CCOc1ccccc1C(N)=O", "solubility": 5.93}, {"molecule": "OCc1ccccc1Br", "solubility": 6.95}, {"molecule": "CC(=O)Nc1ccc(S(=O)(=O)Nc2ccccn2)cc1", "solubility": 0.192}, {"molecule": "Cc1nc2c(=O)n(C)c(=O)n(C)c2nc1C", "solubility": 45.4}, {"molecule": "O=CC(O)C(O)C(O)[C@H](O)C(O)CO", "note": "(stereo in doubt)", "solubility": 476}, {"molecule": "O=C1C=CC(=NO)C=C1", "solubility": 28.4}, {"molecule": "CCOCC(N)C(=O)O", "note": "(centres undefined)", "solubility": 3340}, {"molecule": "CSc1ncc2nccnc2n1", "solubility": 17.5}, {"molecule": "NNC(=O)c1cccnc1", "solubility": 729}, {"molecule": "CN(C)c1nc2c[nH]cnc-2n1", "solubility": 40.9}, {"molecule": "N#Cc1c(O)cc(Cl)[nH]c1=O", "solubility": 58.6}, {"molecule": "CCCCCCCS", "solubility": 0.07}, {"molecule": "O=c1nc[nH]c2nc(-c3ccccc3)c(-c3ccccc3)nc12", "solubility": 0.666}, {"molecule": "CC(C)(OC1CCCCC1)C(=O)O", "solubility": 83.2}, {"molecule": "Cn1c(=O)c2nccnc2n(C)c1=O", "solubility": 34.7}, {"molecule": "CC1(C)C2CCC1(C)C(N)(C(=O)O)C2", "note": "(centres undefined)", "solubility": 25.3}, {"molecule": "Oc1cccc2ccnnc12", "solubility": 3.9}, {"molecule": "OCc1cc(Cl)c(Cl)c(Cl)c1", "solubility": 0.804}, {"molecule": "O=C(O)C=C(CC(=O)O)C(=O)O", "solubility": 2450}, {"molecule": "CC(=O)Nc1ccc(Cl)cc1C", "solubility": 4.9}, {"molecule": "CCCOC(=O)c1c(C(=O)O)cccc1[N+](=O)[O-]", "solubility": 4.5}, {"molecule": "O=C(O)C(Cl)=C(Br)Br", "solubility": 205}, {"molecule": "CC=C(CCCC)C(=O)NC(N)=O", "solubility": 1.63}, {"molecule": "CSc1ncnc2nccnc12", "solubility": 4.32}, {"molecule": "COc1c(C(=O)O)cc(C(=O)O)cc1C(=O)O", "solubility": 29.1}, {"molecule": "c1ccc2c3c(ccc2c1)Nc1ccc2ccccc2c1S3", "solubility": 0.000132}, {"molecule": "Cc1cnnc2c(O)cccc12", "solubility": 2.1}]}]}
